The IC50 is the midpoint of a concentration-inhibition curve.

Where only a bound is given, the exact number is not on record here.

Common to all, as to type: cell-based
One test deals with T1, human A2A receptor (Homo sapiens, UniProt P29274).
T1 construct: expressed in transfected cells; host or cells: HEK293
In words: cAMP (HTRF) functional assay, recombinant HEK293 cells expressing human A2A receptor, agonist NECA. The protocol:
(§1) The functional activities of human A2A, A2B, A1 and A3 receptors were determined by quantification of cAMP, being the second messenger for adenosine receptors.
(§2) Cells were seeded into 384-well plates, forskolin, test compounds and agonists (CPA for A1- and IB-MECA for A3-receptor) were added. After 30 min incubation, HTRF reagents (cAMP dynamic 2, Cis Bio) were added and the cellular cAMP levels were determined using the ENVISION (Perkin Elmer) plate reader. Obtained raw data were normalized against the inhibitor control and the neural control (DMSO) and the normalized data were fitted using GeneData software.
For orientation: TR-FRET usually uses a lanthanide donor and a delayed reading to cut background.

A further test addresses T2, human A2B receptor (Homo sapiens, UniProt P29275).
T2 construct: expressed in transfected cells; host or cells: HEK293
T2 sequence (P29275 1-332): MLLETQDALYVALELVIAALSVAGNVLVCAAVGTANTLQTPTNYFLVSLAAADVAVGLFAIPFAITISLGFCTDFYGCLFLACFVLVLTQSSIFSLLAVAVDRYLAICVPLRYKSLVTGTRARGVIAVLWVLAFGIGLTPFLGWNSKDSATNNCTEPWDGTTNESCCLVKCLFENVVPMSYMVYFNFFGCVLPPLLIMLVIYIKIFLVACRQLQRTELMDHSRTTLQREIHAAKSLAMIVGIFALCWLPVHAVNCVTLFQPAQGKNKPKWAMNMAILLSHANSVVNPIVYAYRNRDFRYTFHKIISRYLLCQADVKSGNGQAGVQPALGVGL
In words: cAMP (HTRF) functional assay, recombinant HEK293 cells expressing human A2B receptor, agonist NECA. How it is done:
as §1, §2

The target of a further test is T3, human A3 receptor (Homo sapiens, UniProt P0DMS8).
T3 construct: expressed in transfected cells; host or cells: CHO
T3 sequence (P0DMS8 1-318): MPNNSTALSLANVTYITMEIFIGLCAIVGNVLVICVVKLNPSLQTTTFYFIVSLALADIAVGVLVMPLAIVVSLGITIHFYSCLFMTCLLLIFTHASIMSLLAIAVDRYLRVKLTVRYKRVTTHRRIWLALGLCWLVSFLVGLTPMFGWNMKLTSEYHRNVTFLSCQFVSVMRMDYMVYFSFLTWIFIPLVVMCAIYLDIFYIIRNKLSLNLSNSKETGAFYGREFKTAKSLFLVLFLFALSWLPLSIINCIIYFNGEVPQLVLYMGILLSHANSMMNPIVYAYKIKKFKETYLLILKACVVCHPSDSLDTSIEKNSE
In words: cAMP (HTRF) functional assay, recombinant CHO cells expressing human A3 receptor, forskolin + agonist IB-MECA. The protocol: as §1
(§3) For human A1 and A3 receptors, recombinant CHO cells, expressing either A1 or A3-receptor, were used. As both receptors couple to Gi proteins, the assay protocol was adapted:
as §2

The next test addresses T4, human A1 receptor (Homo sapiens, UniProt P30542).
T4 construct: expressed in transfected cells; host or cells: CHO
T4 sequence (P30542 1-326): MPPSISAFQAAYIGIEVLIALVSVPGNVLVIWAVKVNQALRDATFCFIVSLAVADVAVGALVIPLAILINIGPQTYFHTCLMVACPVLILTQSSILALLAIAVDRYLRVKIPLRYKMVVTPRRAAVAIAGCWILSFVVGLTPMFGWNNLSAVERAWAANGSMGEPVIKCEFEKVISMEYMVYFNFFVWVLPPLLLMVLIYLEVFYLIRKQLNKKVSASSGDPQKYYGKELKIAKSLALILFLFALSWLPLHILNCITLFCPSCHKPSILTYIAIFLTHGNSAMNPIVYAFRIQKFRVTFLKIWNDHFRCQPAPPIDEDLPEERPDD
Put plainly: cAMP (HTRF) functional assay, recombinant CHO cells expressing human A1 receptor, forskolin + agonist CPA. The protocol: as §1, §3, §2

T1 sequence (P29274 whole entry): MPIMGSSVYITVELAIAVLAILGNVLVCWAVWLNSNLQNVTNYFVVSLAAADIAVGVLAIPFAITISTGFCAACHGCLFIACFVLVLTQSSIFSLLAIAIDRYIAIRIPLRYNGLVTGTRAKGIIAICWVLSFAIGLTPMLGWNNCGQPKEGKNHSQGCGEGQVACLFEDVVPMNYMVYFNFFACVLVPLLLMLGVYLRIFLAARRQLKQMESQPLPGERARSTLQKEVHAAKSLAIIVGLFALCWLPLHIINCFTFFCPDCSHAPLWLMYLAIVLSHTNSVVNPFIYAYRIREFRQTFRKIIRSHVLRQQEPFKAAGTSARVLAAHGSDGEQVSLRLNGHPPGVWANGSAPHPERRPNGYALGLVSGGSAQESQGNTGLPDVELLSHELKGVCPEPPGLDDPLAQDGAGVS

Consider `COc1nc(C#N)c(N2CCOCC2)c2sc(NC(=O)c3cnn(C)c3)nc12` [compound 217, 1-Methyl-1H-pyrazole-4-carboxylic acid (6-cyano-4-methoxy-7-morpholin-4-yl-thiazolo[4,5-c]pyridin-2-yl)-amide], for which the results for the half-inhibitory concentration (IC50) at human A2A receptor, on human A2B receptor and on human A3 receptor were less than 10 nM, less than 100 nM and less than 1000 nM, respectively.
`COCc1ccc(C(=O)Nc2nc3c(OC)ncc(C4CCOCC4)c3s2)cc1` [compound 23, 4-Methoxymethyl-N-[4-methoxy-7-(tetrahydro-pyran-4-yl)-thiazolo[4,5-c]pyridin-2-yl]-benzamide]: the half-maximal inhibitory concentration (IC50) at human A2A receptor is less than 10 nM; at human A2B receptor it was less than 100 nM; on human A1 receptor, less than 1000 nM; at human A3 receptor it was greater than 1000 nM.
As to `COc1nc(F)c(N2CCOCC2)c2sc(NC(=O)c3ccc(N4C(=O)CCC4=O)cc3)nc12` [compound 226, 4-(2,5-Dioxo-pyrrolidin-1-yl)-N-(6-fluoro-4-methoxy-7-morpholin-4-yl-thiazolo[4,5-c]pyridin-2-yl)-benzamide], the concentration for half-maximal inhibition (IC50) was less than 10 nM on human A2A receptor, less than 10 nM at human A2B receptor and greater than 1000 nM on human A3 receptor.
As for `COc1ccccc1-c1cnc(OC)c2nc(NC(=O)N3CCC4(CCOCC4)C3)sc12` [compound 236, N-[4-methoxy-7-(2-methoxyphenyl)-[1,3]thiazolo[4,5-c]pyridin-2-yl]-8-oxa-2-azaspiro[4.5]decane-2-carboxamide], the concentration for half-maximal inhibition (IC50) is less than 100 nM at human A2A receptor, less than 100 nM on human A2B receptor, greater than 1000 nM at human A1 receptor and greater than 1000 nM on human A3 receptor.
Take `COc1ncc(-c2ccccc2F)c2sc(NC(=O)N3CCC4(CCOCC4)C3)nc12` [compound 195, 8-Oxa-2-aza-spiro[4.5]decane-2-carboxylic acid [7-(2-fluoro-phenyl)-4-methoxy-thiazolo[4,5-c]pyridin-2-yl]-amide]: the IC50 on human A2A receptor was less than 10 nM; on human A2B receptor, less than 100 nM; at human A1 receptor it was greater than 1000 nM; at human A3 receptor, greater than 1000 nM.
On to `COc1ncc(-c2ccccc2)c2sc(NC(=O)N3CC[C@@]4(CCOC4)C3)nc12` [compound 208, (R)-2-Oxa-7-aza-spiro[4.4]nonane-7-carboxylic acid (4-methoxy-7-phenyl-thiazolo[4,5-c]pyridin-2-yl)-amide], for which the half-inhibitory concentration (IC50) on human A2A receptor is less than 10 nM; on human A2B receptor it was less than 100 nM; at human A1 receptor, greater than 1000 nM; on human A3 receptor, greater than 1000 nM.
On to `COCCOc1cccc(-c2cnc(OC)c3nc(NC(=O)N4CCC5(CCOCC5)C4)sc23)c1` [compound 225, 8-Oxa-2-aza-spiro[4.5]decane-2-carboxylic acid (4-methoxy-7-[3-(2-methoxy-ethoxy)-phenyl]-thiazolo[4,5-c]pyridin-2-yl}-amide], for which the figures for the concentration for half-maximal inhibition (IC50) at human A2A receptor, at human A2B receptor and on human A3 receptor were less than 10 nM, less than 100 nM and greater than 1000 nM, respectively.
Regarding `COc1ncc(C2CCOCC2)c2sc(NC(=O)c3cnc(N)s3)nc12` [compound 241, 2-amino-N-[4-methoxy-7-(oxan-4-yl)-[1,3]thiazolo[4,5-c]pyridin-2-yl]-1,3-thiazole-5-carboxamide], the IC50 at human A2A receptor is less than 10 nM; at human A2B receptor it was less than 10 nM; on human A1 receptor it was less than 1000 nM; on human A3 receptor, less than 1000 nM.
`COc1ncc(C2CCOCC2)c2sc(NC(=O)N3CCC(C)(O)CC3)nc12` [compound 30, 4-Hydroxy-4-methyl-piperidine-1-carboxylic acid [4-methoxy-7-(tetrahydro-pyran-4-yl)-thiazolo[4,5-c]pyridin-2-yl]-amide]: the IC50 at human A2A receptor is less than 10 nM; at human A2B receptor it was less than 100 nM; on human A1 receptor, less than 1000 nM; at human A3 receptor it was greater than 1000 nM.
`COc1nc(Br)c(N2CCOCC2)c2sc(NC(=O)c3cnn(C)c3)nc12` [compound 178, 1-Methyl-1H-pyrazole-4-carboxylic acid (6-bromo-4-methoxy-7-morpholin-4-yl-thiazolo[4,5-c]pyridin-2-yl)-amide]: the figures for the half-maximal inhibitory concentration (IC50) on human A2A receptor, on human A2B receptor and at human A3 receptor were less than 10 nM, less than 100 nM and less than 1000 nM, respectively.
The corresponding values for `COc1nc(Cl)c(N2CCOCC2)c2sc(NC(=O)c3cnn(C)c3)nc12` [compound 221, 1-Methyl-1H-pyrazole-4-carboxylic acid (6-chloro-4-methoxy-7-morpholin-4-yl-thiazolo[4,5-c]pyridin-2-yl)-amide] are less than 10 nM, less than 100 nM and less than 1000 nM.
On the same counts, the results for `COc1ncc(-c2cccnc2)c2sc(NC(=O)c3ccc(C(=O)N(C)C)cc3)nc12` [compound 218, N-(4-Methoxy-7-pyridin-3-yl-thiazolo[4,5-c]pyridin-2-yl)-N′,N′-dimethyl-terephthalamide] are less than 10 nM, less than 100 nM and greater than 1000 nM.
The corresponding values for `COc1ncc(-c2ccccc2)c2sc(NC(=O)c3cnn(C)c3)nc12` [compound 188, 1-Methyl-1H-pyrazole-4-carboxylic acid (4-methoxy-7-phenyl-thiazolo[4,5-c]pyridin-2-yl)-amide] are less than 10 nM, less than 10 nM and less than 1000 nM.
In the case of `COc1ncc(-c2ccccc2)c2sc(NC(=O)c3ccc(C(=O)NCCN(C)C)cc3)nc12` [compound 230, N-(2-Dimethylamino-ethyl)-N′-(4-methoxy-7-phenyl-thiazolo[4,5-c]pyridin-2-yl)-terephthalamide], the IC50 was less than 10 nM on human A2A receptor, less than 100 nM at human A2B receptor and less than 1000 nM at human A3 receptor.
With `COc1nc(F)c(N2CCOCC2)c2sc(NC(=O)c3cnn(C)c3)nc12` [compound 165, 1-Methyl-1H-pyrazole-4-carboxylic acid (6-fluoro-4-methoxy-7-morpholin-4-yl-thiazolo[4,5-c]pyridin-2-yl)-amide], the 50% inhibitory concentration (IC50) at human A2A receptor is less than 10 nM; on human A2B receptor, less than 10 nM; on human A3 receptor, less than 1000 nM.
As for `COc1ncc(-c2cnn(C)c2)c2sc(NC(=O)c3cnc(C)s3)nc12` [compound 131, 2-Methyl-thiazole-5-carboxylic acid [4-methoxy-7-(1-methyl-1H-pyrazol-4-yl)-thiazolo[4,5-c]pyridin-2-yl]-amide], the results for the half-inhibitory concentration (IC50) at human A2A receptor, on human A2B receptor and at human A3 receptor were less than 10 nM, less than 100 nM and greater than 1000 nM, respectively.
`COc1ncc(-c2ccccc2)c2sc(NC(=O)c3ccc(C(=O)N(C)CCO)cc3)nc12` [compound 227, N-(2-Hydroxy-ethyl)-N′-(4-methoxy-7-phenyl-thiazolo[4,5-c]pyridin-2-yl)-N-methyl-terephthalamide]: the IC50 at human A2A receptor was less than 10 nM; at human A2B receptor it was less than 10 nM; at human A3 receptor, greater than 1000 nM.
Turning to `COCCOc1cccc(-c2cnc(OC)c3nc(NC(=O)c4ccc(C(=O)N(C)C)cc4)sc23)c1` [compound 224, N-{4-Methoxy-7-[3-(2-methoxy-ethoxy)-phenyl]-thiazolo[4,5-c]pyridin-2-yl}-N′,N′-dimethyl-terephthalamide], the results for the IC50 at human A2A receptor, on human A2B receptor and on human A3 receptor were less than 10 nM, less than 100 nM and less than 1000 nM, respectively.
On the same counts, the results for `COc1nc(C)c(-c2ccccc2)c2sc(NC(=O)N3CCC4(CCOCC4)C3)nc12` [compound 223, 8-Oxa-2-aza-spiro[4.5]decane-2-carboxylic acid (4-methoxy-6-methyl-7-phenyl-thiazolo[4,5-c]pyridin-2-yl)-amide] are less than 10 nM, less than 100 nM and greater than 1000 nM.
With `COc1ncc(-c2ccccc2)c2sc(NC(=O)c3ccc(C(=O)NCCO)cc3)nc12` [compound 228, N-(2-Hydroxy-ethyl)-N′-(4-methoxy-7-phenyl-thiazolo[4,5-c]pyridin-2-yl)-terephthalamide], the IC50 at human A2A receptor is less than 10 nM; on human A2B receptor, less than 100 nM; at human A3 receptor, less than 1000 nM.

(Values after patent US11186592B2, “Thiazolopyridine derivatives as adenosine receptor antagonists” (MERCK PATENT GMBH, priority 2017, dated 2021).)
